Experimental data taken from patent US9629364B2, “Synergistic weed control from applications of aminopyralid and clopyralid” (Dow AgroSciences LLC, priority 2012, dated 2017).
Where a name gives a salt, the structure may show the parent alone.

Test system: black nightshade (Solanam nigram)
Assay: Field trial, post-emergence foliar application, weed control rating 0-100%
Assay type: in vivo
Conditions: SOLNI, 56 days after first application, with 0.5 L/ha ACTIROB
Source text: The (a) aminopyralid or an agriculturally acceptable salt or ester thereof is mixed with or applied in combination with (b) clopyralid or an agriculturally acceptable salt or ester thereof in an amount sufficient to induce a synergistic herbicidal effect. […] As described in the Herbicide Handbook of the Weed Science Society of America, Ninth Edition, 2007, p. 429, “‘synergism’ [is] an interaction of two or more factors such that the effect when combined is greater than the predicted effect based on the response to each factor applied separately.” Synergistic in the herbicide context can mean that the use of (a) and (b) as defined above results in an increased weed control effect compared to the weed control effects that are possible with the use of (a) or (b) alone. In some embodiments, the damage or injury to the undesired vegetation caused by the compositions and methods disclosed herein is evaluated using a scale from 0% to 100%, when compared with the untreated control vegetation, wherein 0% indicates no damage to the undesired vegetation and 100% indicates complete destruction of the undesired vegetation. […] 22 (1967) […]
Colby's equation was used to determine the herbicidal effects expected from the mixtures, as described above. The results were measured at 56 days after the first application of the compositions. […]

| Structure (SMILES) | Mean % weed control (1 g ae/ha applied alone) [%] | Mean % weed control (90 g ae/ha applied alone) [%] |
| --- | --- | --- |
| Nc1cc(Cl)nc(C(=O)O)c1Cl [Aminopyralid Potassium Salt, 4-amino-3,6-dichloro-2-pyridinecarboxylic acid] | 0 |  |
| O=C(O)c1nc(Cl)ccc1Cl [Clopyralid-olamine, 3,6-dichloro-2-pyridinecarboxylic acid] |  | 37.5 |
